In data set [1] the test system is patients with hemiplegia attributed to cerebrovascular disease (stroke) who developed RSD (shoulder-hand syndrome). Briefly: Test of treatment of post-stroke RSD (therapeutic administration after onset). The note with it: therapeutic administration group (11 patients), at completion of administration. The class given is in vivo, humans. The method, then:
EL was administered after the onset of RSD (shoulder-hand syndrome) in the same use and dose as in Example 1 to 11 patients with hemiplegia attributed to cerebrovascular disease (stroke) at Brunnstrom stage III or lower in either the upper limb or a finger on admission, who developed RSD (shoulder-hand syndrome). These patients were classified into a therapeutic administration group. On the other hand, the EL administration group of Example 1 was compared as a control (preventive administration group) with the therapeutic administration group.

In data set [2] the test system is patients with hemiplegia attributed to cerebrovascular disease (stroke), onset of RSD (shoulder-hand syndrome). The data set can be described thus: Test of prevention of onset of post-stroke RSD. Format: in vivo, humans. The text has this: Test subjects were 33 patients with hemiplegia attributed to cerebrovascular disease (stroke) at Brunnstrom stage III or lower in either the upper limb or a finger on admission. Patients already developing RSD (shoulder-hand syndrome) on admission and patients with pain in the shoulder joint or swollen paralyzed limbs were excluded from the test. […] On the other hand, 21 test subjects were classified into a rehabilitation alone group (control group) and compared with the EL administration group. Physical therapy and therapeutic exercise, occupational therapy, and the management of the paralyzed limbs were performed thoroughly in all the cases. […] EL administration was initiated 11 to 59 days after an attack of stroke (25.8 days on average) and continued until 5 months after the attack of stroke. The same observation period was applied to the control group. The test subjects were diagnosed as developing RSD (shoulder-hand syndrome) if they had diffuse pain not localized to the shoulder joint, edema involving skin color changes, skin temperature abnormalities, and range of motion limitations, and the practice of their rehabilitation was restricted. These criteria agreed to Veldmnan's diagnostic criteria or diagnostic criteria for CRPS-type 1 provided by the International Association for the Study of Pain.
Activities of daily living (ADL) were evaluated on the basis of the Barthel Index (BI) and the range of motion (ROM) of shoulder joint. The movable range of shoulder joint (also referred to as “shoulder ROM”) was regarded as restricted (Shoulder-ROM-restrictions were present.) if either abduction or flexion was restricted in measurement. The test subjects were also examined for sensory impairment, aphasia, and unilateral spatial neglect on admission.
Statistical analysis was conducted with unpaired t-test, Fisher's exact test or Wilcoxon test, and 5% or lower significance level was regarded as being significant.

Data set [3] concerns RSD triggered and developed by a trauma or surgical invasion. The note with it: clinical, literature; cited from earlier work.
The conditions of data set [4]: in vivo; cited from earlier work.
The mark [5] stands for this setting: EL preventive administration group (12 cases), 20 units i.m. once a week until 5 months after stroke.

Turning to “1-butyric acid-7-(L-2-aminobutyric acid)-26-L-aspartic acid-27-L-valine-29-L-alanine-calcitonin [elcatonin]”, the “No RSD, the number of persons” value in data set [1] stood at 0. For the same molecule, the “Incidence converted to incidence in all patients with hemiplegia attributed to stroke in the facility” value in data set [2] (EL administration group) is “approximately 1.3%”. The “Incidence of RSD” value in data set [2] (EL administration initiated within 48 days after stroke) worked out at 0%. For the same molecule, in data set [2] (setting [5]), the “The number of test subjects developing post-stroke RSD: Developed” value is 1 and the “The number of test subjects developing post-stroke RSD: Not developed” value is on record as 11. Also, the “Incidence of RSD (cases developed RSD)” value in data set [2] (EL preventive administration group, 12 cases) is listed as 8.3%. Besides, the “Incidence of RSD until discharge versus unadministered patient group” value in data set [2] (repetitive administration to stroke hemiplegia patients without RSD on admission) is “suppressed significantly and remarkably”.

For `O=C1O[C@H]([C@@H](O)CO)C(O)=C1O` [vitamin C], the “Preventive effect on the initial onset of RSD after trauma or surgical invasion” value in data set [3] was “preventive effect”.

As for salmon calcitonin, in data set [4], the “Dose of oral administration agent relative to dose of drip infusion in vein” value is “approximately 60 times”.

The values above are taken from patent US7919460B2, “Method for prophylaxis of reflex sympathetic dystrophy after stroke” (Asahi Kasei Pharma Corporation, priority 2006, dated 2011).
